From patent US9963442B2, “Pyridones as herbicides” (E I DU PONT DE NEMOURS AND COMPANY, priority 2014, dated 2018)

What was measured:
[1] = tested on: barnyardgrass (Echinochloa crus-galli); test: Test B flooded paddy test; type: in vivo; set-up: key: 0 = no effect, 100 = complete control; conditions: Flood, 250 g ai/ha applied to paddy water at 2-leaf stage; visually evaluated after 13 to 15 days; scale 0 (no effect) to 100 (complete control)
Outline: (§1)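 First, plants reach the 2-leaf stage; next, pots are flooded to 3 cm and compound is delivered into the water; finally, after 13 to 15 greenhouse days at constant depth, injury is graded visually from 0 to 100 against controls.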

[2] = tested on: ducksalad (Heteranthera limosa); test: Test B flooded paddy test; type: in vivo; set-up: key: 0 = no effect, 100 = complete control; conditions: Flood, 250 g ai/ha applied to paddy water at 2-leaf stage; visually evaluated after 13 to 15 days; scale 0 (no effect) to 100 (complete control)
Outline: as §1

rice (Oryza sativa) = test: Test B flooded paddy test; type: in vivo; set-up: key: 0 = no effect, 100 = complete control; conditions: Flood, 250 g ai/ha applied to paddy water at 2-leaf stage; visually evaluated after 13 to 15 days; scale 0 (no effect) to 100 (complete control)
Outline: as §1

[3] = tested on: sedge, umbrella (small-flower umbrella sedge, Cyperus difformis); test: Test B flooded paddy test; type: in vivo; set-up: key: 0 = no effect, 100 = complete control; conditions: Flood, 250 g ai/ha applied to paddy water at 2-leaf stage; visually evaluated after 13 to 15 days; scale 0 (no effect) to 100 (complete control)
Outline: as §1

[4] = tested on: Italian ryegrass (Lolium multiflorum); test: Test C postemergence; type: in vivo; conditions: scale 0 to 100, 0 is no effect, 100 is complete control
Outline: (§2)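 0 = no effect, 100 = complete control: visual greenhouse ratings taken 13–15 days after spraying. Postemergence targets were at the 1- to 4-leaf stage (2–18 cm) in peat-based medium; preemergence pots used loam–sand soil.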

[5] = tested on: barnyardgrass (Echinochloa crus-galli); test: Test C postemergence; type: in vivo; conditions: scale 0 to 100, 0 is no effect, 100 is complete control
Outline: as §2

[6] = tested on: chickweed (common chickweed, Stellaria media); test: Test C postemergence; type: in vivo; conditions: scale 0 to 100, 0 is no effect, 100 is complete control
Outline: as §2

corn (Zea mays) = test: Test C postemergence; type: in vivo; conditions: scale 0 to 100, 0 is no effect, 100 is complete control
Outline: as §2

[7] = tested on: galium (catchweed bedstraw, Galium aparine); test: Test C postemergence; type: in vivo; conditions: scale 0 to 100, 0 is no effect, 100 is complete control
Outline: as §2

kochia (Kochia scoparia) = test: Test C postemergence; type: in vivo; conditions: scale 0 to 100, 0 is no effect, 100 is complete control
Outline: as §2

[8] = tested on: morningglory (Ipomoea coccinea); test: Test C postemergence; type: in vivo; conditions: scale 0 to 100, 0 is no effect, 100 is complete control
Outline: as §2

[9] = tested on: pigweed (Amaranthus retroflexus); test: Test C postemergence; type: in vivo; conditions: scale 0 to 100, 0 is no effect, 100 is complete control
Outline: as §2

soybean (Glycine max) = test: Test C postemergence; type: in vivo; conditions: scale 0 to 100, 0 is no effect, 100 is complete control
Outline: as §2

[10] = tested on: velvetleaf (Abutilon theophrasti); test: Test C postemergence; type: in vivo; conditions: scale 0 to 100, 0 is no effect, 100 is complete control
Outline: as §2

wild oat (Avena fatua) = test: Test C postemergence; type: in vivo; conditions: scale 0 to 100, 0 is no effect, 100 is complete control
Outline: as §2

[11] = tested on: yellow nutsedge (Cyperus esculentus); test: Test C postemergence; type: in vivo; conditions: scale 0 to 100, 0 is no effect, 100 is complete control
Outline: as §2

melting point: 72 to 74 °C
Structure (SMILES): O=c1cccc(Oc2ncc(Cl)cn2)n1-c1ccc(Cl)cc1 [Compound 1, 1-(4-chlorophenyl)-6-[(5-chloro-2-pyrimidinyl)oxy]-2(1H)-pyridinone]
Plant response rating, Barnyardgrass [1]: 20
Plant response rating, Ducksalad [2]: 45
Plant response rating, Rice (rice (Oryza sativa)): 10
Plant response rating, Sedge, Umbrella [3]: 65
Plant response rating, Ryegrass, Italian ([4]; 16 g ai/ha): 5
Plant response rating, Ryegrass, Italian ([4]; 31 g ai/ha): 5
Plant response rating, Ryegrass, Italian ([4]; 62 g ai/ha): 5
Plant response rating, Ryegrass, Italian ([4]; 125 g ai/ha): 10
Plant response rating, Barnyardgrass ([5]; 16 g ai/ha): 5
Plant response rating, Barnyardgrass ([5]; 31 g ai/ha): 5
Plant response rating, Barnyardgrass ([5]; 62 g ai/ha): 10
Plant response rating, Barnyardgrass ([5]; 125 g ai/ha): 10
Plant response rating, Chickweed ([6]; 16 g ai/ha): 10
Plant response rating, Chickweed ([6]; 31 g ai/ha): 10
Plant response rating, Chickweed ([6]; 62 g ai/ha): 50
Plant response rating, Chickweed ([6]; 125 g ai/ha): 65
Plant response rating, Corn (corn (Zea mays); 16 g ai/ha): 5
Plant response rating, Corn (corn (Zea mays); 31 g ai/ha): 5
Plant response rating, Corn (corn (Zea mays); 62 g ai/ha): 10
Plant response rating, Corn (corn (Zea mays); 125 g ai/ha): 10
Plant response rating, Galium ([7]; 16 g ai/ha): 40
Plant response rating, Galium ([7]; 31 g ai/ha): 45
Plant response rating, Galium ([7]; 62 g ai/ha): 80
Plant response rating, Galium ([7]; 125 g ai/ha): 85
Plant response rating, Kochia (kochia (Kochia scoparia); 16 g ai/ha): 90
Plant response rating, Kochia (kochia (Kochia scoparia); 31 g ai/ha): 90
Plant response rating, Kochia (kochia (Kochia scoparia); 62 g ai/ha): 95
Plant response rating, Kochia (kochia (Kochia scoparia); 125 g ai/ha): 95
Plant response rating, Morningglory ([8]; 16 g ai/ha): 10
Plant response rating, Morningglory ([8]; 31 g ai/ha): 40
Plant response rating, Morningglory ([8]; 62 g ai/ha): 40
Plant response rating, Morningglory ([8]; 125 g ai/ha): 60
Plant response rating, Pigweed ([9]; 16 g ai/ha): 35
Plant response rating, Pigweed ([9]; 31 g ai/ha): 95
Plant response rating, Pigweed ([9]; 62 g ai/ha): 60
Plant response rating, Pigweed ([9]; 125 g ai/ha): 80
Plant response rating, Soybean (soybean (Glycine max); 16 g ai/ha): 15
Plant response rating, Soybean (soybean (Glycine max); 31 g ai/ha): 35
Plant response rating, Soybean (soybean (Glycine max); 62 g ai/ha): 30
Plant response rating, Soybean (soybean (Glycine max); 125 g ai/ha): 70
Plant response rating, Velvetleaf ([10]; 16 g ai/ha): 10
Plant response rating, Velvetleaf ([10]; 31 g ai/ha): 10
Plant response rating, Velvetleaf ([10]; 62 g ai/ha): 20
Plant response rating, Velvetleaf ([10]; 125 g ai/ha): 25
Plant response rating, Oat, Wild (wild oat (Avena fatua); 16 g ai/ha): 5
Plant response rating, Oat, Wild (wild oat (Avena fatua); 31 g ai/ha): 5
Plant response rating, Oat, Wild (wild oat (Avena fatua); 62 g ai/ha): 5
Plant response rating, Oat, Wild (wild oat (Avena fatua); 125 g ai/ha): 10
Plant response rating, Nutsedge, Yellow ([11]; 16 g ai/ha): 5
Plant response rating, Nutsedge, Yellow ([11]; 31 g ai/ha): 5
Plant response rating, Nutsedge, Yellow ([11]; 62 g ai/ha): 5
Plant response rating, Nutsedge, Yellow ([11]; 125 g ai/ha): 10
